Consider 22 molecules from PubChem BioAssay (NCI).

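Cells were grown in 96-well plates and exposed to each compound for 48 hours at five concentrations; endpoints were interpolated linearly between bracketing concentrations, or set to the highest concentration if not reached. GI50: concentration for 50% inhibition of growth. The concentration for full growth arrest is given as TGI.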

For one experiment, the system named is A498 renal. Nature of the experiment: growth of human tumour cells (NCI), 48 h.
Turning to `COC(=O)C(=O)C1(CCC(C)=O)c2ccccc2-c2c(C)ccc(C)c21` (stereo not given), the TGI is above 100 µM.

In the case of `O=C(/C=C/c1ccccc1)c1cc(Br)ccc1O`, the TGI came out at 26.8 µM.

As for `O=C(CN1CCOCC1)Nc1nc(-c2ccc(Cl)cc2)cs1`, the TGI is above 100 µM.

Molecule `CC1=C(Oc2ccccc2)C(CCC(=O)O)c2c(O)cc(Cl)c(O)c21` (stereo not given) yielded a TGI above 100 µM.

For the molecule `CC1=Nc2ccccc2S/C1=C(/C)NNC(=O)C(N)=O`, the TGI was above 100 µM.

Consider `COc1ccc2c(c1)/C(=C\c1c(C)nc3sccn13)C(=O)N2`, for which the GI50 is below 0.01 µM and the TGI came to 0.0646 µM.

`C#CCOCn1cnc2c(Cl)ncnc21` yielded a TGI above 100 µM.

Turning to `Oc1cccc2ccc(N/N=C/c3cc(CN4CCCCC4)c(O)c4ncccc34)nc12`, the GI50 was 0.433 µM and the TGI was found to be 14.1 µM.

For the molecule `COc1ccc(-c2n/c(=C\c3c(O)[nH]c4ccc(OC)cc34)cc3c2=Nc2ccccc2-3)cc1`, the GI50 is 11.6 µM and the TGI worked out at 25.4 µM.

In the case of `CC1SC2=NC3=C(c4ccccc4C3=O)C(c3ccc(F)cc3)N2C1=O` (stereo not given), the TGI was above 100 µM.

Take `CC1C=C(OC(=O)c2ccccc2)C(=O)C(n2cc(F)c(=O)[nH]c2=O)O1` (stereo not given): the TGI was above 100 µM.

In turn, `COc1cc(OC(C)=O)cc2c(OC(C)=O)ccc(OC(C)=O)c12` showed a TGI above 100 µM.

Another experiment relates to HOP-62 NSCLC. Nature of the experiment: growth of human tumour cells (NCI), 48 h.
As for `COC(=O)C(=O)C1(CCC(C)=O)c2ccccc2-c2c(C)ccc(C)c21` (stereo not given), the TGI is above 100 µM.

`O=C(/C=C/c1ccccc1)c1cc(Br)ccc1O` had a TGI of 46.3 µM.

For the molecule `COc1ccc2nc(-c3cccs3)cc(C(O)CN3CCSCC3)c2c1` (stereo not given), the TGI was found to be 65.8 µM.

Regarding `O=C(CN1CCOCC1)Nc1nc(-c2ccc(Cl)cc2)cs1`, the TGI was found to be 73.1 µM.

For the molecule `CC1=C(Oc2ccccc2)C(CCC(=O)O)c2c(O)cc(Cl)c(O)c21` (stereo not given), the TGI is above 100 µM.

With `CC(C)[C@H]1CO[C@]2(C)[C@@H]3CN(Cc4ccccc4)C[C@@H]3C(=O)N12`, the TGI is above 100 µM.

For `CC1=Nc2ccccc2S/C1=C(/C)NNC(=O)C(N)=O`, the TGI was above 100 µM.

`COc1ccc2c(c1)/C(=C\c1c(C)nc3sccn13)C(=O)N2` came in with a TGI above 100 µM.

In turn, `CSc1ccc(C2OC(=O)c3ccccc32)c2ccccc12` (stereo not given) came in with a TGI above 100 µM.

With `C#CCOCn1cnc2c(Cl)ncnc21`, the TGI was above 100 µM.

For `Oc1cccc2ccc(N/N=C/c3cc(CN4CCCCC4)c(O)c4ncccc34)nc12`, the GI50 was 0.0456 µM and the TGI was 8.04 µM.

For `COc1ccc(-c2n/c(=C\c3c(O)[nH]c4ccc(OC)cc34)cc3c2=Nc2ccccc2-3)cc1`, the GI50 was 2.36 µM and the TGI is 4.91 µM.

Molecule `CC1SC2=NC3=C(c4ccccc4C3=O)C(c3ccc(F)cc3)N2C1=O` (stereo not given) registered a TGI above 100 µM.

The molecule `CC(=O)OCC1OC(OC2C(CSC3OC(COC(C)=O)C(OC(C)=O)C(OC(C)=O)C3OC(C)=O)OC(OC(C)=O)C(OC(C)=O)C2OC(C)=O)C(OC(C)=O)C(OC(C)=O)C1OC(C)=O` (stereo not given) had a TGI above 100 µM.

For the molecule `CCCCCCCCN=C(N)c1ccc(N2CCN(c3ccc(C(N)=NCCCCCCCC)cc3)CC2)cc1`, the GI50 was 7.14 µM and the TGI came to 15 µM.

The molecule `CC1C=C(OC(=O)c2ccccc2)C(=O)C(n2cc(F)c(=O)[nH]c2=O)O1` (stereo not given) came in with a TGI above 100 µM.

Regarding `COc1cc(OC(C)=O)cc2c(OC(C)=O)ccc(OC(C)=O)c12`, the TGI was above 100 µM.

In the case of `Nc1ccccc1C#C/C=C\C#Cc1cccs1`, the GI50 was 11.2 µM and the TGI is 33.2 µM.

With `COc1ccc(-c2ccc(/C=N/n3c(COc4ccc(Cl)cc4Cl)nn(CN4CCOCC4)c3=S)o2)c([N+](=O)[O-])c1`, the GI50 is 35.9 µM and the TGI is above 100 µM.

Consider `O=C(O)/C=C\C(=O)N1C/C(=C\c2ccccc2Cl)C(=O)/C(=C/c2ccccc2Cl)C1`, for which the GI50 was 3.4 µM and the TGI is 8.26 µM.

Regarding `COc1ccc(OC)c(/C=C2\SC(=S)NC2=O)c1`, the GI50 was 30.9 µM and the TGI is above 100 µM.

Take `COc1cc2c(c(OC)c1)C1c3ccccc3NC(=O)N1CC2` (stereo not given): the GI50 was 3.28 µM and the TGI was above 100 µM.

A further experiment concerns MOLT-4 leukemia. Put plainly: growth of human tumour cells (NCI), 48 h.
Molecule `COC(=O)C(=O)C1(CCC(C)=O)c2ccccc2-c2c(C)ccc(C)c21` (stereo not given) returned a TGI of 66 µM.

Regarding `O=C(/C=C/c1ccccc1)c1cc(Br)ccc1O`, the TGI was 36.3 µM.

The molecule `COc1ccc2nc(-c3cccs3)cc(C(O)CN3CCSCC3)c2c1` (stereo not given) displayed a TGI of 56.3 µM.

As for `O=C(CN1CCOCC1)Nc1nc(-c2ccc(Cl)cc2)cs1`, the TGI amounted to 42.6 µM.

As for `CC1=C(Oc2ccccc2)C(CCC(=O)O)c2c(O)cc(Cl)c(O)c21` (stereo not given), the TGI was above 100 µM.

The molecule `CC(C)[C@H]1CO[C@]2(C)[C@@H]3CN(Cc4ccccc4)C[C@@H]3C(=O)N12` gave a TGI above 100 µM.

Regarding `CC1=Nc2ccccc2S/C1=C(/C)NNC(=O)C(N)=O`, the TGI was above 100 µM.

In the case of `COc1ccc2c(c1)/C(=C\c1c(C)nc3sccn13)C(=O)N2`, the GI50 is below 0.0462 µM.

`CSc1ccc(C2OC(=O)c3ccccc32)c2ccccc12` (stereo not given) displayed a TGI above 100 µM.

`C#CCOCn1cnc2c(Cl)ncnc21` showed a TGI above 100 µM.

On to `Oc1cccc2ccc(N/N=C/c3cc(CN4CCCCC4)c(O)c4ncccc34)nc12`, for which the GI50 was 0.0597 µM and the TGI came out at 3.82 µM.

For the molecule `COc1ccc(-c2n/c(=C\c3c(O)[nH]c4ccc(OC)cc34)cc3c2=Nc2ccccc2-3)cc1`, the GI50 is 2.41 µM and the TGI is 5.27 µM.

`CC1SC2=NC3=C(c4ccccc4C3=O)C(c3ccc(F)cc3)N2C1=O` (stereo not given) displayed a TGI above 100 µM.

Take `CC(=O)OCC1OC(OC2C(CSC3OC(COC(C)=O)C(OC(C)=O)C(OC(C)=O)C3OC(C)=O)OC(OC(C)=O)C(OC(C)=O)C2OC(C)=O)C(OC(C)=O)C(OC(C)=O)C1OC(C)=O` (stereo not given): the TGI is above 100 µM.

On to `CCCCCCCCN=C(N)c1ccc(N2CCN(c3ccc(C(N)=NCCCCCCCC)cc3)CC2)cc1`, for which the GI50 is 0.724 µM and the TGI came out at 3.4 µM.

As to `CC1C=C(OC(=O)c2ccccc2)C(=O)C(n2cc(F)c(=O)[nH]c2=O)O1` (stereo not given), the TGI was above 100 µM.

As to `COc1cc(OC(C)=O)cc2c(OC(C)=O)ccc(OC(C)=O)c12`, the TGI was above 100 µM.
